This series can be described thus: gradient 5% acetonitrile 3 min, to 50% in 2 min, to 85% in 15 min, held 3 min, 100 µL/min. The note with it: column: Zorbax Extend-C18 2.1 x 50 mm; eluents: water / acetonitrile, 0.1% formic acid. A digest of the protocol:
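Each retention time is based on an adduct peak selected computationally and verified by manual inspection. Measurements used HPLC–quadrupole time-of-flight mass spectrometry in positive and negative ionization mode on mixtures of ~100 pure standards. Chromatography ran on a Zorbax Extend-C18 column (2.1 × 50 mm, 1.8 μm) at 100 μL/min with water and acetonitrile, each containing 0.1% formic acid, and dead and dwell volumes of 40 μL and 900 μL.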
For `CSc1ncn(-c2nc(NC(C)C)nc(NC(C)C)n2)n1`, the RP-LC retention time came to 875 s.
As for `CCc1nc(-c2csc(S(=O)(=O)N3CCC(C(=O)N4CCC5(CC4)OCCO5)CC3)c2)no1`, the figure is 816 s; as for `CC(=O)N1CCC2(CC1)Oc1ccccc1C1CC(c3ccc4c(c3)OCO4)=NN12` (stereo not given), 783 s.
As for `O=C(OCc1cccnc1)c1cn(-c2cccc(Cl)c2)c(=O)c2ccccc12`, the figure is 813 s; as for `CC(CCc1ccccc1)NC(=O)C1CCN(C(=O)C2Sc3ccccc3NC2=O)CC1` (stereo not given), 811 s; as for `CCNS(=O)(=O)c1cccc(-c2nnc(-c3ccc(C)cc3)o2)c1`, 922 s.
As for `Cc1nc(-c2nnc(NC(=O)Cn3cnc4c3c(=O)n(C)c(=O)n4C)o2)cs1`, the figure is 569 s.
Take `CC1(O)CCOC2(CCN(Cc3cccc4[nH]ccc34)CC2)C1` (stereo not given): the RP-LC retention time is 589 s.
As for `Cc1ccc2cc(CCC(=O)N(C)Cc3cn(C)nc3C)c(=O)[nH]c2c1`, the figure is 645 s.
The same measure for `Cc1ccc(NC(=O)NCCc2cn(CC(C)C)c3ncccc23)c(Cl)c1`: 937 s; for `O=C(CSCc1ccccc1)Nc1cc(=O)[nH]c(=O)[nH]1`: 629 s.
As for `O=C(C1CC(=O)N(c2n[nH]c3cccc(F)c23)C1)N1CCC(Cc2ccccc2)CC1` (stereo not given), the figure is 882 s; as for `Cc1ccc(-n2c(N3CCCC(C(=O)NCc4ccc(Cl)cc4)C3)nc3ccsc3c2=O)cc1` (stereo not given), 956 s.
`Cc1noc(CNC(=O)C2CCN(C(=O)c3ccc4ncsc4c3)CC2)n1` came in with an RP-LC retention time of 574 s.
`COc1ccc(C(=O)N2CCC3(CC2)NC(=O)c2cc(Cl)ccc2N3C)cc1` returned an RP-LC retention time of 768 s.
As for `CCn1cnc2ccc(-c3noc(-c4cccc(OC)c4)n3)cc21`, the figure is 788 s.
As for `COCc1nnc(-c2ccc(F)cc2)o1`, the figure is 740 s; as for `O=C(Nc1cc(-c2cccs2)no1)C1CC1`, 803 s; as for `Cc1ccccc1Cn1cccc1CNC(=O)Nc1ccc2c(c1)OCO2`, 931 s.
As for `CCOc1ccccc1-n1nnc(C(=O)OCc2nc(-c3ccccc3)oc2C)c1C`, the figure is 1090 s.
`CCNc1nc(C)cc(N2CCN(C(=O)Nc3ccc(C)cc3C)CC2)n1` had an RP-LC retention time of 656 s.
The same measure for `CCN1CCCn2cc(S(=O)(=O)N3CCN(c4ccc(Cl)cc4)CC3)cc2C1=O`: 894 s.
The same measure for `CNC(=O)c1cc2cc(Br)ccc2[nH]1`: 771 s; for `COc1ccc(C2(C(=O)N3CCC(n4c(C)cnc4-c4ccccc4)C3)CC2)cc1` (stereo not given): 661 s.
The same measure for `O=C(C1CCN(S(=O)(=O)c2ccc3[nH]c4c(c3c2)CCCCC4)CC1)N1CCCC1`: 906 s; for `O=C1CC(c2noc(-c3cc(Cl)ccc3F)n2)CN1c1ccc(F)cc1` (stereo not given): 1100 s; for `CCCN(CC1CCOC1)C(=O)Nc1cc(F)cc(F)c1` (stereo not given): 871 s.
For the molecule `O=C(NCCc1ccccc1)c1c(O)c2sccc2n(Cc2ccccc2)c1=O`, the RP-LC retention time was found to be 1270 s.
The same measure for `Cc1ccc(F)c(NC(=O)C(C)C2CCN(C(=O)Nc3ccc(Cl)cc3)CC2)c1` (stereo not given): 968 s.
The same measure for `CC(=O)c1cccc(S(=O)(=O)Nc2ccc(CC(=O)N(C)C)cc2)c1`: 651 s; for `Cc1csc(-c2nnc(Nc3ccc(Oc4ncccc4-c4ccnc(N)n4)cc3)c3ccccc23)c1`: 731 s; for `Cc1ccc2sc(N(Cc3ccccn3)C(=O)C3COc4ccccc4O3)nc2c1C` (stereo not given): 1250 s.
`CCCn1c(=O)c(C)nc2cc(-c3noc(-c4ccc(C#N)cc4)n3)ccc21` had an RP-LC retention time of 1080 s.
The same measure for `COc1ccc(-c2cc(N3CCC(NC(=O)c4ccc(N(C)C)cc4)C3)n[nH]2)cc1` (stereo not given): 702 s; for `CC(C)CCNC(=O)c1ccc2c(c1)nc1n2CCN(C2CCCCC2)C1=O`: 815 s; for `COC1(C2=NCCN2)COc2ccccc2O1` (stereo not given): 581 s.
As for `CCCNC(=O)C1CCCN(c2ccc(SCC(=O)Nc3ccccc3F)nn2)C1` (stereo not given), the figure is 620 s.
`Cc1cc(NC(=O)c2c(O)c3cccnc3n(-c3cccc(F)c3)c2=O)ccc1F` displayed an RP-LC retention time of 1310 s.
Molecule `Cc1ccc(-c2cc3n(n2)CCCN(C(=O)c2ccsc2)C3)cc1` had an RP-LC retention time of 845 s.
Molecule `CC(C)CCNC(=O)C1(C)Cn2nc(C(=O)N3CCN(C4CCCCC4)CC3)cc2C(=O)N1C` (stereo not given) yielded an RP-LC retention time of 620 s.
The same measure for `Cc1noc(C)c1C(=O)N1CCCC1c1ccccc1Cl` (stereo not given): 838 s; for `COc1cc(OC)cc(N2C(=O)C3N=NN(Cc4nc(-c5ccc(OC(C)C)cc5)no4)C3C2=O)c1` (stereo not given): 1090 s.
As for `Cc1ccc(Nc2c(-c3ccc(C(=O)O)cc3)nc3cnccn23)c(C)c1`, the figure is 928 s.
As for `CC(C(=O)Nc1nc2ccc(S(C)(=O)=O)cc2s1)n1nnc2ccccc2c1=O` (stereo not given), the figure is 706 s; as for `COc1ccc(OC)c(NC(=O)N2CCC(CC(=O)NCc3ccc(F)cc3)CC2)c1`, 803 s; as for `Cc1ccc(-c2nc3cc(C)ccn3c2NC(=O)c2ccc(Cl)cc2)cc1`, 742 s.
`CN1C(=O)c2ccccc2Oc2ccc(C(=O)NCc3ccc(Cl)cc3)cc21` came in with an RP-LC retention time of 957 s.
As for `O=C(CCC1CCCN(S(=O)(=O)c2cccc(F)c2)C1)NCC1CC1` (stereo not given), the figure is 822 s; as for `Cn1cccc1C(=O)C(=O)N1CCN(C(c2ccccc2)c2ccccc2)CC1`, 824 s; as for `CCOC(=O)c1c(C)oc2nc(C)nc(NCc3cccc(OC)c3)c12`, 1080 s.
The same measure for `O=C(CN1CCN(CC(=O)c2cccs2)CC1)Nc1cc(C(F)(F)F)ccc1Cl`: 625 s.
The same measure for `COc1ccc(CNC(=O)Cn2c(=O)c3cc(-c4cccs4)nn3c3ncccc32)cc1`: 816 s.
`O=C(NCCN1CCN(C(=O)NC(c2ccccc2)c2ccccc2)CC1)c1ccsc1` showed an RP-LC retention time of 605 s.
As for `CC(=O)Nc1nc(-c2cccnc2)cs1`, the figure is 504 s; as for `Cc1ccc(C)c(NC(=O)Nc2ccc(-c3cn4ccc(C)nc4n3)cc2)c1`, 690 s.
On to `CC1CCCCN1S(=O)(=O)c1ccc2nc(N3CCN(c4ccccn4)CC3)ccc2c1` (stereo not given), for which the RP-LC retention time is 674 s.
As to `Fc1ccc(-c2csc(Nc3ccc(Br)cn3)n2)cc1`, the RP-LC retention time worked out at 1230 s.
`Cc1cc(C)cc(OCc2nc(CCN(C)C(=O)COc3ccccc3)no2)c1` had an RP-LC retention time of 1030 s.
As for `Cc1cc(NS(=O)(=O)c2cc(-c3[nH]ncc3C(=O)N(C)C)oc2C)ccc1F`, the figure is 699 s; as for `O=C(Cc1cc(-c2ccc3c(c2)OCO3)on1)Nc1ccc(F)c(F)c1F`, 888 s.
The same measure for `O=C(Nc1ccc2c(c1)OCO2)N1CCC(N2CCN(Cc3ccccc3)C2=O)CC1`: 787 s; for `Cc1ccc(-c2noc(C3CCCN3C(=O)c3ccc4c(c3)OCO4)n2)cc1` (stereo not given): 1000 s; for `COc1ccc(NC(=O)N(C)CCc2noc(COc3ccc(F)cc3)n2)c(OC)c1`: 837 s.
The same measure for `Cc1ccc(NC(=O)CN2CCC(C(=O)N3CCN(C(=O)c4ccco4)CC3)CC2)cc1`: 569 s; for `COC[C@@H]1CN(S(=O)(=O)c2cccc(C#N)c2)C[C@H]1c1ccncc1`: 630 s.
`Cc1ccccc1-n1ccn(Cc2nc(-c3ccc(C(C)(C)C)cc3)no2)c(=O)c1=O` yielded an RP-LC retention time of 1050 s.
In turn, `CC(C)NC(=O)C1Cn2cccc2C(=O)N1` (stereo not given) registered an RP-LC retention time of 578 s.
The same measure for `CCN(CC)C(=O)c1ccc2c(c1)N(CC(=O)NCCC1=CCCCC1)C(=O)CS2`: 864 s; for `Cc1ccc(-n2nc(CO)c(C(=O)NC3CC3)n2)cc1C`: 890 s.
As for `COc1ccc(CN(C)Cc2cc(=O)n3ccc(C)cc3n2)cc1OC`, the figure is 587 s; as for `CCN1CCN(CC(=O)NCc2ccccc2)C(=O)C1=O`, 570 s.
The same measure for `CCn1ccc2c(cc(C(=O)Nc3ccc(C)c(F)c3)n2C)c1=O`: 830 s; for `CCn1cc(C(=O)Nc2ccc(C)cc2)c(S(=O)(=O)N2CCSCC2)n1`: 887 s; for `O=C(Nc1cccc(Cl)c1)Nc1ccc2nncn2c1`: 735 s.
As for `CC(C)NC(=O)c1ccc(OCC2CCCN(C(=O)c3ccccc3Cl)C2)cc1` (stereo not given), the RP-LC retention time came out at 876 s.
The same measure for `CCn1cc(C(=O)NCc2ccc(C)cc2)c2cccnc21`: 811 s.
Molecule `Cc1nnc(NC(=O)CN2CCCCC2c2nc(C(C)C)no2)s1` (stereo not given) yielded an RP-LC retention time of 781 s.
As for `Cc1ccc(F)c2c(=O)c3c([nH]c12)CCN(CC(=O)Nc1ccc(Cl)cc1)C3`, the figure is 646 s; as for `COC(=O)c1cnc(N2CCN(c3ccc(F)cc3)CC2)c2ccccc12`, 1190 s; as for `Cc1csc(C(=O)Nc2ccc(CC(=O)N3CCC(O)CC3)cc2)c1`, 635 s.

These data come from the METLIN SMRT retention time set (Domingo-Almenara et al. 2019).
